Measurements reported in PubChem BioAssay (NCI).
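Step 1: Grow cells in 96-well plates. Step 2: Expose to compound for 48 hours at 5 concentrations. Step 3: Interpolate endpoints linearly; if unreached, use highest concentration. TGI denotes the concentration required for complete inhibition of growth.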

What was measured:
Test in all cases: NCI anticancer screen, dose series, 48 h
UACC-62 melanoma = tested on: UACC-62 melanoma
UACC-257 melanoma = tested on: UACC-257 melanoma
SW-620 colon = tested on: SW-620 colon
M14 melanoma = tested on: M14 melanoma
SF-539 CNS = tested on: SF-539 CNS
RXF 393 renal = tested on: RXF 393 renal
MALME-3M melanoma = tested on: MALME-3M melanoma
A549 NSCLC = tested on: A549 NSCLC
SNB-19 CNS = tested on: SNB-19 CNS
HCT-15 colon = tested on: HCT-15 colon
NCI-H23 lung = tested on: NCI-H23 lung
HT29 colon = tested on: HT29 colon
CCRF-CEM leukemia = tested on: CCRF-CEM leukemia
HCT-116 colon = tested on: HCT-116 colon
OVCAR-5 ovarian = tested on: OVCAR-5 ovarian
K-562 leukemia = tested on: K-562 leukemia
EKVX NSCLC = tested on: EKVX NSCLC
SN12C renal = tested on: SN12C renal
786-0 renal = tested on: 786-0 renal
HCC-2998 colon = tested on: HCC-2998 colon
MOLT-4 leukemia = tested on: MOLT-4 leukemia
CAKI-1 renal = tested on: CAKI-1 renal
IGROV1 ovarian = tested on: IGROV1 ovarian
SF-295 CNS = tested on: SF-295 CNS
COLO 205 colon = tested on: COLO 205 colon
U251 CNS = tested on: U251 CNS
SR leukemia = tested on: SR leukemia
T-47D breast = tested on: T-47D breast
OVCAR-8 ovarian = tested on: OVCAR-8 ovarian
HL-60(TB) leukemia = tested on: HL-60(TB) leukemia
A498 renal = tested on: A498 renal
HOP-92 NSCLC = tested on: HOP-92 NSCLC
NCI-H460 lung = tested on: NCI-H460 lung
MCF7 breast = tested on: MCF7 breast
MDA-N = tested on: MDA-N
SK-MEL-5 melanoma = tested on: SK-MEL-5 melanoma
SNB-75 CNS = tested on: SNB-75 CNS
KM12 colon = tested on: KM12 colon
HOP-62 NSCLC = tested on: HOP-62 NSCLC
MDA-MB-435 = tested on: MDA-MB-435
OVCAR-4 ovarian = tested on: OVCAR-4 ovarian
BT-549 breast = tested on: BT-549 breast
NCI/ADR-RES ovarian = tested on: NCI/ADR-RES ovarian
NCI-H522 lung = tested on: NCI-H522 lung
MDA-MB-231 breast = tested on: MDA-MB-231 breast
PC-3 prostate = tested on: PC-3 prostate
SK-MEL-2 melanoma = tested on: SK-MEL-2 melanoma
SF-268 CNS = tested on: SF-268 CNS
SK-MEL-28 melanoma = tested on: SK-MEL-28 melanoma
NCI-H226 lung = tested on: NCI-H226 lung
ACHN renal = tested on: ACHN renal
UO-31 renal = tested on: UO-31 renal
RPMI-8226 leukemia = tested on: RPMI-8226 leukemia
DU-145 prostate = tested on: DU-145 prostate
OVCAR-3 ovarian = tested on: OVCAR-3 ovarian
LOX IMVI melanoma = tested on: LOX IMVI melanoma
HS 578T breast = tested on: HS 578T breast
TK-10 renal = tested on: TK-10 renal
SK-OV-3 ovarian = tested on: SK-OV-3 ovarian

## O=c1cc(-c2ccccc2)c2ccc(O)c(CN(CCCl)CCCl)c2o1
UACC-62 melanoma
  TGI: 51.6 µM
UACC-257 melanoma
  TGI: 33.9 µM
SW-620 colon
  TGI: 69.7 µM
M14 melanoma
  TGI: 42 µM
SF-539 CNS
  TGI: 44.4 µM
RXF 393 renal
  TGI: 30.1 µM
MALME-3M melanoma
  TGI: 41.3 µM
A549 NSCLC
  TGI: 57.3 µM
SNB-19 CNS
  TGI: 47 µM
HCT-15 colon
  TGI: 45.2 µM
NCI-H23 lung
  TGI: 41.7 µM
HT29 colon
  TGI: 26 µM
CCRF-CEM leukemia
  TGI: 20.7 µM
HCT-116 colon
  TGI: 43.1 µM
OVCAR-5 ovarian
  TGI: 34.1 µM
K-562 leukemia
  TGI: 91.5 µM
EKVX NSCLC
  TGI: 59.1 µM
SN12C renal
  TGI: 38.5 µM
786-0 renal
  TGI: 39.3 µM
HCC-2998 colon
  TGI: 25 µM
MOLT-4 leukemia
  TGI: 47.8 µM
CAKI-1 renal
  TGI: 29.1 µM
IGROV1 ovarian
  TGI: 33.8 µM
SF-295 CNS
  TGI: 29.7 µM
COLO 205 colon
  TGI: 25.9 µM
U251 CNS
  TGI: 56.9 µM
SR leukemia
  TGI: 33.1 µM
T-47D breast
  TGI: 55.6 µM
OVCAR-8 ovarian
  TGI: 48.2 µM
HL-60(TB) leukemia
  TGI: 40.4 µM
A498 renal
  TGI: 41.6 µM
HOP-92 NSCLC
  TGI: 56.8 µM
NCI-H460 lung
  TGI: > 100 µM
MCF7 breast
  TGI: > 100 µM
MDA-N
  TGI: 35.1 µM
SK-MEL-5 melanoma
  TGI: 31 µM
SNB-75 CNS
  TGI: 38.9 µM
KM12 colon
  TGI: 35.8 µM
HOP-62 NSCLC
  TGI: 33.2 µM
MDA-MB-435
  TGI: 39.9 µM
OVCAR-4 ovarian
  TGI: > 100 µM
BT-549 breast
  TGI: 25 µM
NCI/ADR-RES ovarian
  TGI: > 100 µM
NCI-H522 lung
  TGI: 35.7 µM
MDA-MB-231 breast
  TGI: 33.2 µM
PC-3 prostate
  TGI: 36.8 µM
SK-MEL-2 melanoma
  TGI: 59.8 µM
SF-268 CNS
  TGI: 44.5 µM
SK-MEL-28 melanoma
  TGI: 36.7 µM
NCI-H226 lung
  TGI: 32.5 µM
ACHN renal
  TGI: 64 µM
UO-31 renal
  TGI: 36.9 µM
RPMI-8226 leukemia
  TGI: 47.8 µM
DU-145 prostate
  TGI: > 100 µM
OVCAR-3 ovarian
  TGI: 40.4 µM
LOX IMVI melanoma
  TGI: 22.1 µM
HS 578T breast
  TGI: 69.5 µM

## COc1ccc(NC2=NCCO2)c2c1CCCC2
UACC-62 melanoma
  TGI: 89.2 µM
UACC-257 melanoma
  TGI: > 100 µM
SW-620 colon
  TGI: > 100 µM
M14 melanoma
  TGI: > 100 µM
SF-539 CNS
  TGI: > 100 µM
RXF 393 renal
  TGI: 86.2 µM
MALME-3M melanoma
  TGI: > 100 µM
A549 NSCLC
  TGI: > 100 µM
SNB-19 CNS
  TGI: > 100 µM
HCT-15 colon
  TGI: > 100 µM
NCI-H23 lung
  TGI: 87.9 µM
HT29 colon
  TGI: > 100 µM
CCRF-CEM leukemia
  TGI: 86 µM
HCT-116 colon
  TGI: > 100 µM
OVCAR-5 ovarian
  TGI: > 100 µM
K-562 leukemia
  TGI: > 100 µM
EKVX NSCLC
  TGI: > 100 µM
786-0 renal
  TGI: > 100 µM
HCC-2998 colon
  TGI: > 100 µM
MOLT-4 leukemia
  TGI: 42.4 µM
TK-10 renal
  TGI: > 100 µM
CAKI-1 renal
  TGI: > 100 µM
IGROV1 ovarian
  TGI: > 100 µM
SF-295 CNS
  TGI: > 100 µM
COLO 205 colon
  TGI: > 100 µM
U251 CNS
  TGI: > 100 µM
SR leukemia
  TGI: 88.2 µM
T-47D breast
  TGI: > 100 µM
OVCAR-8 ovarian
  TGI: > 100 µM
HL-60(TB) leukemia
  TGI: 40 µM
A498 renal
  TGI: > 100 µM
HOP-92 NSCLC
  TGI: 79.5 µM
NCI-H460 lung
  TGI: > 100 µM
MCF7 breast
  TGI: > 100 µM
MDA-N
  TGI: > 100 µM
SK-MEL-5 melanoma
  TGI: 33.7 µM
SK-OV-3 ovarian
  TGI: 84.8 µM
SNB-75 CNS
  TGI: 93.9 µM
KM12 colon
  TGI: > 100 µM
MDA-MB-435
  TGI: > 100 µM
OVCAR-4 ovarian
  TGI: > 100 µM
BT-549 breast
  TGI: > 100 µM
NCI/ADR-RES ovarian
  TGI: > 100 µM
NCI-H522 lung
  TGI: > 100 µM
MDA-MB-231 breast
  TGI: > 100 µM
PC-3 prostate
  TGI: > 100 µM
SK-MEL-2 melanoma
  TGI: 42.6 µM
SK-MEL-28 melanoma
  TGI: > 100 µM
NCI-H226 lung
  TGI: 65.3 µM
ACHN renal
  TGI: > 100 µM
UO-31 renal
  TGI: > 100 µM
RPMI-8226 leukemia
  TGI: 87 µM
DU-145 prostate
  TGI: > 100 µM
OVCAR-3 ovarian
  TGI: > 100 µM
LOX IMVI melanoma
  TGI: > 100 µM
HS 578T breast
  TGI: 91.6 µM

## CC1=C(O)C(=O)C(C2=C(O)C(=O)C(C)=C(O)C2=O)=C(O)C1=O
UACC-62 melanoma
  TGI: 54 µM
UACC-257 melanoma
  TGI: > 100 µM
SW-620 colon
  TGI: > 100 µM
M14 melanoma
  TGI: > 100 µM
SF-539 CNS
  TGI: > 100 µM
RXF 393 renal
  TGI: > 100 µM
MALME-3M melanoma
  TGI: 46.6 µM
SNB-19 CNS
  TGI: > 100 µM
HCT-15 colon
  TGI: > 100 µM
NCI-H23 lung
  TGI: > 100 µM
HT29 colon
  TGI: > 100 µM
CCRF-CEM leukemia
  TGI: > 100 µM
HCT-116 colon
  TGI: > 100 µM
OVCAR-5 ovarian
  TGI: > 100 µM
K-562 leukemia
  TGI: > 100 µM
EKVX NSCLC
  TGI: > 100 µM
SN12C renal
  TGI: > 100 µM
786-0 renal
  TGI: > 100 µM
HCC-2998 colon
  TGI: > 100 µM
MOLT-4 leukemia
  TGI: > 100 µM
CAKI-1 renal
  TGI: > 100 µM
IGROV1 ovarian
  TGI: > 100 µM
SF-295 CNS
  TGI: > 100 µM
COLO 205 colon
  TGI: > 100 µM
U251 CNS
  TGI: > 100 µM
SR leukemia
  TGI: > 100 µM
T-47D breast
  TGI: > 100 µM
OVCAR-8 ovarian
  TGI: > 100 µM
HL-60(TB) leukemia
  TGI: > 100 µM
A498 renal
  TGI: > 100 µM
HOP-92 NSCLC
  TGI: 92.1 µM
NCI-H460 lung
  TGI: > 100 µM
MCF7 breast
  TGI: > 100 µM
MDA-N
  TGI: > 100 µM
SK-MEL-5 melanoma
  TGI: 67.9 µM
SK-OV-3 ovarian
  TGI: > 100 µM
SNB-75 CNS
  TGI: > 100 µM
KM12 colon
  TGI: > 100 µM
HOP-62 NSCLC
  TGI: > 100 µM
MDA-MB-435
  TGI: > 100 µM
OVCAR-4 ovarian
  TGI: > 100 µM
BT-549 breast
  TGI: > 100 µM
NCI/ADR-RES ovarian
  TGI: > 100 µM
NCI-H522 lung
  TGI: > 100 µM
MDA-MB-231 breast
  TGI: > 100 µM
PC-3 prostate
  TGI: > 100 µM
SF-268 CNS
  TGI: > 100 µM
SK-MEL-28 melanoma
  TGI: > 100 µM
NCI-H226 lung
  TGI: > 100 µM
ACHN renal
  TGI: > 100 µM
UO-31 renal
  TGI: > 100 µM
RPMI-8226 leukemia
  TGI: > 100 µM
DU-145 prostate
  TGI: > 100 µM
OVCAR-3 ovarian
  TGI: > 100 µM
LOX IMVI melanoma
  TGI: > 100 µM
HS 578T breast
  TGI: > 100 µM
